Laboratory results: patent US20160109459A1, “Compositions And Methods For Heparan Sulfate As A Biomarker For Transplant Rejection” (Duke University, priority 2012, published 2016)

Legend:
BALB/c DCs = assay: DC production of pro-inflammatory cytokines by ELISA; format: cell-based, mouse
Method: FIG. 3A is a graph showing WT, TLR4^−/−, or MyD88^−/− BALB/c DCs (2×10^5/well) were stimulated with LPS (100 ng/mL), HS (100 μg/mL), or Pam3CSK4 (2 μg/mL), or left unstimulated (media) for 24 hours, and measured for surface expression of co-stimulatory molecules CD40 and CD80 by FACS analysis. FIGS. 3B and 3C are graphs showing WT, MyD88^−/−, and TLR4^−/− BALB/c cultured DCs were co-cultured with media alone, LPS, HS, or Pam3CSK4 as in (A) and culture supernatants were tested for IL-6 (B) and IL-12 (C) by ELISA. Data are representative of three independent experiments; *p<0.05 compared with media alone.
Lethally irradiated BALB/c recipients received either 1×10^7 B10.D2 TCD-BM only (Allo-BM), 1×10^7 B10.D2 TCD-BM and 5×10^6 B10.D2 LCs (Allo-BM+LC), or 1×10^7 BALB/c TCD-BM and 5×10^6 BALB/c LCs (Syn-BM+LC). FIG. 6A is a graph showing HS concentrations following transplantation as determined by ELISA at the indicated time points; n=2-5 samples per time point; *p<0.05 comparing Allo-BM+LC and Allo-BM at the indicated time point. FIG. 6B is a graph showing the half maximal effective concentration (EC50) of HS on DC stimulation, BALB/c DCs (2×10^5/well) following 24 hr of culture with differing concentrations of HS in triplicate and IL-6 production was tested by ELISA. Results are representative of three independent experiments.
FIG. 13 is a graph showing WT, MyD88^−/−, and TLR4^−/− BALB/c cultured DCs that were co-cultured with media alone, LPS, HS, or Pam3CSK4 and tested for TNF-α as determined by ELISA assay.
Cytokine analysis: Cell culture supernatants were obtained from DC cultures or T cell proliferation assays and assayed for IL-6, IL-12 and IFN-γ by ELISA (BD Biosciences) according to the manufacturer's standard protocols. HEK 293 supernatants were tested for human IL-8 by ELISA (BioLegend, San Diego, United States).
To determine if the in vivo concentrations of HS were sufficient to cause DC activation, the production of IL-6 by cultured DCs in response to a range of HS concentrations was tested (FIG. 6B).

human TLR4 = molecular target: T1, human TLR4 (Homo sapiens, UniProt O00206); assay: NF-κB dual luciferase reporter assay in HEK TLR4-MD2-CD14 cells; format: cell-based; conditions: HS 100 μg/mL, 6 hours, TLR4 expressing cell lines
T1 construct: expressed in transfected cells; host or cells: HEK 293 (gift from Dr. Michael Fessler, NIEHS)
Method: HEK cell lines stably expressing CD14 and MD2 alone (HEK MD2-CD14), or co-expressed with human TLR2 (HEK TLR2-MD2-CD14) or human TLR4 (HEK TLR4-MD2-CD14) were transfected with a plasmid encoding firefly luciferase (F) under control of the NF-κB promoter along with a plasmid expressing Renilla luciferase (R) under control of the thymidine kinase promoter as a transfection control. Cell lines were cultured for 6 hours with media alone, LPS (100 ng/mL), HS (100 μg/mL), or Pam3CSK4 (2 μg/mL). FIG. 5A is a graph showing the ratio of F/R was measured by dual luciferase reporter assay to determine NF-κB activation of lysed cells, *p<0.05 compared with media alone. FIG. 5B is a graph showing results supernatants analyzed for IL-8 production by ELISA. […]
Luciferase reporter assay: Luciferase activity was measured using the Dual-Luciferase Reporter Assay (Promega, Madison, Wis., USA) according to the manufacture's recommended protocol. Luminescence was measured using an LMax Luminometer (Molecular Devices, Sunnyvale, United States).
A heterodimer of different TLRs is required for some PAMPs. […] The ratio of luminescence produced by firefly luciferase to Renilla luciferase (F/R) was then measured in response to media alone, LPS, HS, and Pam3CSK4. The production of IL-8, which is downstream of NF-κB activation, by ELISA was also measured. […]

[1] = BALB/c DCs 2×10^5/well, 24 hr culture

T1 sequence (O00206 24-839): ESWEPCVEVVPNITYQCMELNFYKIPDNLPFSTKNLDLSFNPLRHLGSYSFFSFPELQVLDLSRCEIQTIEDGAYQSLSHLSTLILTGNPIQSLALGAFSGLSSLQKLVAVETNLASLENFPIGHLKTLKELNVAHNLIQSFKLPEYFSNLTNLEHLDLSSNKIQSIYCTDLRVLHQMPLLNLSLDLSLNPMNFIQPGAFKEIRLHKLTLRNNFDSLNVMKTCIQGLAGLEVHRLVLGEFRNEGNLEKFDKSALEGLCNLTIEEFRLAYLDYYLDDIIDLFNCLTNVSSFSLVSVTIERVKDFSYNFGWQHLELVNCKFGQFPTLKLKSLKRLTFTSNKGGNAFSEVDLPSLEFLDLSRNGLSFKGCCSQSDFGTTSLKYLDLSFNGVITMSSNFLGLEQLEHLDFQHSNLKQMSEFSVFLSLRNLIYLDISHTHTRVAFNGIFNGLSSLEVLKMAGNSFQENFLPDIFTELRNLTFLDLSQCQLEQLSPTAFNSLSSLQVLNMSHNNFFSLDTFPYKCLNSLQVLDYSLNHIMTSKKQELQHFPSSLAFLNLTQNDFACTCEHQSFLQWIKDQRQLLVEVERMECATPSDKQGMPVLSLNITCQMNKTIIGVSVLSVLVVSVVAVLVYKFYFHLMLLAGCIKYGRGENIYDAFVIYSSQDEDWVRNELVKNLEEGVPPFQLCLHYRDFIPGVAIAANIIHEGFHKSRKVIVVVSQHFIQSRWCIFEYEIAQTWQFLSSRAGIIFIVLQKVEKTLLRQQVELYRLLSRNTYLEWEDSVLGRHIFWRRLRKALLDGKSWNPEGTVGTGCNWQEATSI
T1 sequence (Q9Y6Y9 17-160 partner limits assumed): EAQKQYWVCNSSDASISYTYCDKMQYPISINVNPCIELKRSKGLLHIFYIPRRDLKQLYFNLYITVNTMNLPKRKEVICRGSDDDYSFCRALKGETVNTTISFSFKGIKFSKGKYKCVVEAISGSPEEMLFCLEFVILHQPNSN

heparan sulfate [HS]
concentration achieving maximal response (IL-6 production by DCs) (BALB/c DCs; [1]): 12.5 µg/mL | half maximal effective concentration (EC50) on DC stimulation (IL-6 production) (BALB/c DCs; [1]): approximately 4 μg/mL | production of IL-6 and IL-12 from TLR4−/− or MyD88−/− DCs (BALB/c DCs; HS 100 μg/mL, 24 h): but not from TLR4^−/− or MyD88^−/− DCs | production of IL-6 and IL-12 from WT DCs (BALB/c DCs; HS 100 μg/mL, 24 h, not inhibited by PMB): stimulated DCs to produce | DC expression of TNF-α (BALB/c DCs; TLR4- and MyD88-dependent): up-regulate | NF-κB activation (ratio F/R) (human TLR4): caused NF-κB activation
